Here are results for 13 compounds from patent US20230312587A1, “PTERIDINONE COMPOUNDS AND USES THEREOF” (Vertex Pharmaceutical Incorporated, priority 2018, published 2023).

The assay deals with β-catenin-TCF-mediated reporter transcription activity in Colo 205 cells. Briefly: Colo 205 reporter assay (TCF/LEF luciferase). The class given is cell-based. The following applies: Colo 205 TCF/LEF luciferase reporter, five hours after addition of compound, read-out: TCF reporter Colo205 IC50. The source says: The compounds of the invention described herein were screened using the assay procedure for β-catenin-TCF-mediated reporter transcription activity described below.
Reporter cell lines were generated by stably transfecting cells of cancer cell lines (e.g., colon cancer) with a plasmid reporter construct (From SABiosciences, a QIAGEN company) that includes TCF/LEF promoter driving expression of the firefly luciferase gene. TCF/LEF reporter constructs were made in which TCF/LEF promoter, a promoter with optimal number of TCF/LEF binding sites designed by SABiosceinces, was linked upstream of the firefly luciferase gene. This construct could also include a puromycin resistance gene as a selectable marker. This construct could also be used to stably transfect Colo 205 cells, a colon cancer cell line having a mutated APC gene that causes a constitutively active β-catenin. A control cell line was generated using another plasmid construct containing the luciferase gene under the control of a CMV basal promoter which is not activated by p-catenin.
Colo 205 Cultured cells with a stably transfected reporter construct were plated at approximately 10,000 cells per well into 384 well multi-well plates for twenty four hours. The testing compounds were then added to the wells in 2-fold serial dilutions using a twenty micromolar top concentration. A series of control wells for each cell type received only compound solvent. Five hours after the addition of compound, reporter activity for luciferase was assayed, by addition of the SteadyGlo luminescence reagent (Promega). The reporter luminescence activity was measured using Pherastar plate reader (BMG Labtech). Readings were normalized to DMSO only treated cells, and normalized activities were then used in the IC50 calculations. The Colo 205 reporter assay data are summarized in Table 45: A<0.3 μM; 0.3 μM≤B<1.0 μM; 1.0 μM≤C<5.0 μM; D≥5.0 μM
Colo 205 reporter assay data has also been obtained for certain R-isomers of Formula (I) wherein R^4 is —H or -D, and wherein the carbon to which R^3 and R^4 are attached (C2 carbon of Formula (X)) has R stereochemistry; such epimeric compounds are represented using the suffix “B” attached to the Compound described herein having the S stereochemistry at the carbon to which R^3 and R^4 are attached: […]

The structures appear in SMILES notation. Like-named read-outs stand apart in the source and are kept apart here.

As for `C[C@H]1C(=O)Nc2cnc(NCc3cnn(Cc4cccc(C(F)(F)F)c4)c3)nc2N1C` [Compound 45, (7S)-7,8-dimethyl-2-(((1-(3-(trifluoromethyl)benzyl)-1H-pyrazol-4-yl)methyl)amino)-7,8-dihydropteridin-6(5H)-one], the IC50 (Homo sapiens, COLO 205, 5 h) was less than 300 nM.
Take `CCN1C(=O)[C@H](CCO)N(CC)c2nc(NCc3cnn(Cc4cccc(C(F)(F)F)c4)c3)ncc21` [Compound 49, (7S)-5,8-diethyl-7-(2-hydroxyethyl)-2-(((1-(3-(trifluoromethyl)benzyl)-1H-pyrazol-4-yl)methyl)amino)-7,8-dihydropteridin-6(5H)-one]: the IC50 (Homo sapiens, COLO 205, 5 h) is less than 300 nM.
On to `CC[C@H]1C(=O)N(C)c2cnc(NCc3cnn(Cc4ccc(F)cc4)c3)nc2N1C(C)C` [Compound 52, (7S)-7-ethyl-2-(((1-(4-fluorobenzyl)-1H-pyrazol-4-yl)methyl)amino)-8-isopropyl-5-methyl-7,8-dihydropteridin-6(5H)-one], for which the IC50 fell in the range of 300 to 1000 nM.
Turning to `Cc1nc(NCc2cnn(Cc3ccccc3)c2)nc2c1NC(=O)[C@H](C)N2C` [Compound 53, (7S)-2-(((1-benzyl-1H-pyrazol-4-yl)methyl)amino)-4,7,8-trimethyl-7,8-dihydropteridin-6(5H)-one], for the setting “Homo sapiens, COLO 205, 5 h”, the IC50 was less than 300 nM.
As for `Cc1nc(NCc2cnn(Cc3ccc(C#N)cc3)c2)nc2c1NC(=O)[C@H](C)N2C` [Compound 55, (7S)-4-((4-(((4,7,8-trimethyl-6-oxo-5,6,7,8-tetrahydropteridin-2-yl)amino)methyl)-1H-pyrazol-1-yl)methyl)benzonitrile], the IC50 (Homo sapiens, COLO 205, 5 h) is less than 300 nM.
Same read-out and setting: then `C[C@H]1C(=O)Nc2cnc(NCc3ccc(Oc4ccc(F)cc4)nc3)nc2N1C` [Compound 56, (7S)-2-(((6-(4-fluorophenoxy)pyridin-3-yl)methyl)amino)-7,8-dimethyl-7,8-dihydropteridin-6(5H)-one], with less than 300 nM.
In the case of `Cc1nc(NCc2ccc(OCc3ccc(F)cc3)nc2)nc2c1NC(=O)[C@H](C)N2C` [Compound 57, (7S)-2-(((6-((4-fluorobenzyl)oxy)pyridin-3-yl)methyl)amino)-4,7,8-trimethyl-7,8-dihydropteridin-6(5H)-one], the IC50 (Homo sapiens, COLO 205, 5 h) is less than 300 nM.
For the compound `Cc1nc(NCc2cnn(CC3CCC(F)(F)CC3)c2)nc2c1NC(=O)[C@H](C)N2C` [Compound 58, (7S)-2-(((1-((4,4-difluorocyclohexyl)methyl)-1H-pyrazol-4-yl)methyl)amino)-4,7,8-trimethyl-7,8-dihydropteridin-6(5H)-one], the IC50 (Homo sapiens, COLO 205, 5 h) was less than 300 nM.
On the same count and under the same terms, then `Cc1nc(NCc2nc(-c3ccccc3)cs2)nc2c1NC(=O)[C@H](C)N2C` [Compound 59, (7S)-4,7,8-trimethyl-2-(((4-phenylthiazol-2-yl)methyl)amino)-7,8-dihydropteridin-6(5H)-one], with not below 5000 nM; and `Cc1nc(NCc2ccnc(N3CCCCC3)c2)nc2c1NC(=O)[C@H](C)N2C` [Compound 60, (S)-4,7,8-trimethyl-2-(((2-(piperidin-1-yl)pyridin-4-yl)methyl)amino)-7,8-dihydropteridin-6(5H)-one], with not below 5000 nM; and `Cc1nc(NCc2cnn(CC3CC(F)(F)C3)c2)nc2c1NC(=O)[C@H](C)N2C` [Compound 61, (7S)-2-(((1-((3,3-difluorocyclobutyl)methyl)-1H-pyrazol-4-yl)methyl)amino)-4,7,8-trimethyl-7,8-dihydropteridin-6(5H)-one], with less than 300 nM.
As to `Cc1nc(NCc2ccnc(N3CCOCC3)c2)nc2c1NC(=O)[C@H](C)N2C` [Compound 62, (S)-4,7,8-trimethyl-2-(((2-morpholinopyridin-4-yl)methyl)amino)-7,8-dihydropteridin-6(5H)-one], the IC50 (Homo sapiens, COLO 205, 5 h) is not below 5000 nM.
For the compound `Cc1nc(NCc2cnn(Cc3ccc(F)cc3C#N)c2)nc2c1NC(=O)[C@H](C)N2C` [Compound 64, (7S)-5-fluoro-2-((4-(((4,7,8-trimethyl-6-oxo-5,6,7,8-tetrahydropteridin-2-yl)amino)methyl)-1H-pyrazol-1-yl)methyl)benzonitrile], the IC50 (Homo sapiens, COLO 205, 5 h) was less than 300 nM.
